What was measured:
R. toruloides DAO [1] = biological target: T1, R. toruloides DAO (Rhodotorula toruloides, UniProt P80324); assay: activity of purified DAO on amino acid substrates and Ceph C (relative activity, apparent Km); assay type: biochemical; design: made in house; host or cells: R. toruloides cells (native source, not recombinant); settings: for relative activity of the purified DAO on substrate / activity of the purified DAO on substrate: purified R. toruloides DAO
T1 sequence (P80324 25-368): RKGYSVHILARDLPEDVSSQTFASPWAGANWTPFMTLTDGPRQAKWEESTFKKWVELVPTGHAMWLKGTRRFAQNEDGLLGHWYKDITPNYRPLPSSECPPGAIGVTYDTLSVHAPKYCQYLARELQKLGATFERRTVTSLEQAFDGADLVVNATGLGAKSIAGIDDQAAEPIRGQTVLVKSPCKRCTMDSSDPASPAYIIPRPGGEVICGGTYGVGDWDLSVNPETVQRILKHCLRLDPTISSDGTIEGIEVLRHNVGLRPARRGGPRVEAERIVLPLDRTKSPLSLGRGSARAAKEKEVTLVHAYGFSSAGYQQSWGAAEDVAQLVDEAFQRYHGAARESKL

R. toruloides DAO [2] = biological target: T1, R. toruloides DAO
R. toruloides DAO [3] = biological target: T1, R. toruloides DAO; assay: biochemical
[4] = substrate: C[C@@H](N)C(=O)O; assay: purified protein, by the assay type; settings: other: purified R. toruloides DAO
[5] = substrate: CSCC[C@@H](N)C(=O)O; assay: purified protein, by the assay type; settings: other: purified R. toruloides DAO
[6] = substrate: [H][C@]12SCC(COC(C)=O)=C(C(=O)O)N1C(=O)[C@H]2NC(=O)CCC[C@@H](N)C(=O)O; assay: purified protein, by the assay type; assay type: biochemical; settings: other: purified R. toruloides DAO
[7] = substrate: N[C@H](Cc1c[nH]c2ccccc12)C(=O)O; assay: purified protein, by the assay type; assay type: biochemical; settings: other: purified R. toruloides DAO
[8] = substrate: N[C@H](CO)C(=O)O; assay: purified protein, by the assay type; assay type: biochemical; settings: other: purified R. toruloides DAO

CC(=O)OCC1=C(C(=O)O)N2C(=O)[C@@H](NC(=O)CCC[C@@H](N)C(=O)O)[C@H]2SC1 [Ceph C, cephalosporin C]
activity on Ceph C as compared with activity against D-alanine (R. toruloides DAO [1]; purified DAO, SEQ ID NO: 3): 95%

N[C@H](CC(=O)O)C(=O)O [D-aspartic acid]
relative activity of the purified DAO on substrate (R. toruloides DAO [1]): < 20 % of maximal

N[C@H](CCC(=O)O)C(=O)O [D-glutamic acid]
relative activity of the purified DAO on substrate (R. toruloides DAO [1]): < 20 % of maximal

NCCCC[C@@H](N)C(=O)O [D-lysine]
relative activity of the purified DAO on substrate (R. toruloides DAO [1]): < 20 % of maximal

C[C@H](O)[C@@H](N)C(=O)O [D-threonine]
relative activity of the purified DAO on substrate (R. toruloides DAO [1]): < 20 % of maximal

N[C@H](Cc1c[nH]c2ccccc12)C(=O)O [D-tryptophan]
activity of the purified DAO on substrate (R. toruloides DAO [1]): best substrate

C[C@H](N)C(=O)O [L-alanine]
activity of the purified DAO on substrate (R. toruloides DAO [1]): No activity

CSCC[C@H](N)C(=O)O [L-methionine]
activity of the purified DAO on substrate (R. toruloides DAO [1]): No activity

N[C@@H](Cc1ccccc1)C(=O)O [L-phenylalanine]
activity of the purified DAO on substrate (R. toruloides DAO [1]): No activity

O=C(O)[C@@H]1CCCN1 [L-proline]
activity of the purified DAO on substrate (R. toruloides DAO [1]): No activity

O=C(O)c1ccccc1 [benzoic acid]
enzyme inhibited in the presence of aromatic acid (R. toruloides DAO [2]): 49%

O=C(O)c1cccnc1 [nicotinic acid]
enzyme inhibited in the presence of aromatic acid (R. toruloides DAO [2]): 21%

Nc1ccc(C(=O)O)cc1 [p-aminobenzoic acid]
enzyme inhibited in the presence of aromatic acid (R. toruloides DAO [2]): 72%
Ki (R. toruloides DAO [3]): 300 µM

B1: R. toruloides DAO (Rhodotorula toruloides) (protein)
chain: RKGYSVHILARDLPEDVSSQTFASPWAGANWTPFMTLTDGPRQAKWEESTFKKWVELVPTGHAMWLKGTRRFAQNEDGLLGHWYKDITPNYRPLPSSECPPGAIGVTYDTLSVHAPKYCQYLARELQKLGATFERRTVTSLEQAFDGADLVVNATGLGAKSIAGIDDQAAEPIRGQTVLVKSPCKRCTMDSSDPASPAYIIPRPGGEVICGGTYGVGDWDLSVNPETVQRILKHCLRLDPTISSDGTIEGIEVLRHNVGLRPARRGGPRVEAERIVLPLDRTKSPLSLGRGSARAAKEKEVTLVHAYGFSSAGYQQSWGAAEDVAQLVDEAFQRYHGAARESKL
notes: made in house; host or cells: R. toruloides cells (native source, not recombinant)
Km [4]: 680 µM
Km [5]: 220 µM
Km [6]: 650 µM
Km [7]: 180 µM
Km [8]: 3400 µM

Source: patent publication US5877013A, “Rhodosporidium D-amino acid oxidase” (Food Industry Research and Development Institute, priority 1997, dated 1999)
